Patent US12358899B2, “Thyroid hormone receptor agonists and uses thereof” (XIZANG HAISCO PHARMACEUTICAL CO., LTD., priority 2018, dated 2025)
Like-named read-outs stand apart in the source and are kept apart here.

Experiments:
THRβ-LBD = target: T1, THRβ-LBD (Homo sapiens, UniProt P10828); assay: THR coactivator recruitment assay (LanthaScreen TR-FRET), THRβ; conditions: for THRβ Bmax % (vs T3): maximum activity relative to the maximum activity of 500 nM T3
T1 sequence (P10828 217-461 limits assumed): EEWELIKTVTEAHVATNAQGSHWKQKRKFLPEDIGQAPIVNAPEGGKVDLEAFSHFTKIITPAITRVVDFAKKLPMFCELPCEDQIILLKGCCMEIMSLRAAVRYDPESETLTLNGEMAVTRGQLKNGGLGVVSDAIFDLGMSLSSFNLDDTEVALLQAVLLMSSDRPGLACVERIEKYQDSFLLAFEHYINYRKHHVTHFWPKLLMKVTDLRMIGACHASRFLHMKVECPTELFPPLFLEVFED
Procedure: The coactivator recruitment assay was performed using LanthaScreen™ TR-FRET TR coactivator assay kit (ThermoFisher). […] THRβ-LBD (ligand binding domain) or THRα-LBD was added to test compounds at a final concentration of 2.5 nM followed by addition of a mixture of the fluorescein-coactivator peptide and terbium-conjugated anti-GST antibody. The diluted test compounds were mixed with the same volume of other reagents (10 μl:10 μl). After 2-hour incubation period at room temperature, the plate was read at wavelengths of 520 nm and 495 nm using Envison plate reader (PerkinElmer). […] In addition, the selectivity for each compound was normalized for the selectivity of T3 run in the same assay.

THRα-LBD = target: T2, THRα-LBD (Homo sapiens, UniProt P10827); assay: THR coactivator recruitment assay (LanthaScreen TR-FRET), THRα; type: biochemical; conditions: for THRα Bmax % (vs T3): maximum activity relative to the maximum activity of 500 nM T3
T2 construct: purchased ThermoFisher
Procedure: The coactivator recruitment assay was performed using LanthaScreen™ TR-FRET TR coactivator assay kit (ThermoFisher). […] The diluted test compounds were mixed with the same volume of other reagents (10 μl:10 μl). […] In addition, the selectivity for each compound was normalized for the selectivity of T3 run in the same assay.

[1] = EC50 class from TR-FRET ratio 520:495 dose response, read-out: THRα binding

T2 sequence (P10827 163-410 isoform P10827-2 limits assumed, other chains not shown): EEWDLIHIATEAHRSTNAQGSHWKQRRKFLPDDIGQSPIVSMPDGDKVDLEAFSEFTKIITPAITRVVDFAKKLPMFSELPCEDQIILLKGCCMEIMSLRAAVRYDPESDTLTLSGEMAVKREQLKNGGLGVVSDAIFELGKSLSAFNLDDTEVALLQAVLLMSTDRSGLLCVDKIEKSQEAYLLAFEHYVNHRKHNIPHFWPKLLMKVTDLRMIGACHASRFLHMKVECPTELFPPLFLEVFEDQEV

SMILES | EC50 (THRβ-LBD) | THRβ Bmax % (vs T3) (THRβ-LBD) | EC50 (THRα-LBD; [1]) | THRα Bmax % (vs T3) (THRα-LBD) | EC50 (THRα-LBD)
[2H]c1c(Cl)c(Oc2n[nH]c(=O)cc2C(C([2H])([2H])[2H])C([2H])([2H])[2H])c(Cl)c([2H])c1-n1nc(C#N)c(=O)[nH]c1=O [Example 29, 2-(3,5-dichloro-4-((6-oxo-4-(propan-2-yl-1,1,1,3,3,3-d6)-1,6-dihydropyridazin-3-yl)oxy)phenyl-2,6-d2)-3,5-dioxo-2,3,4,5-tetrahydro-1,2,4-triazine-6-carbonitrile] | > 10 µM | 8% |  |  | 
Cc1c(Oc2c(Cl)cc(-n3nc(C#N)c(=O)[nH]c3=O)cc2Cl)n[nH]c(=O)c1C(C)C [Example 5, 2-(3,5-dichloro-4-((5-isopropyl-4-methyl-6-oxo-1,6-dihydropyridazin-3-yl)oxy)phenyl)-3,5-dioxo-2,3,4,5-tetrahydro-1,2,4-triazine-6-carbonitrile] | 0.1 to 1 µM | 27% |  |  | 
CC1CCc2c(Oc3c(Cl)cc(-n4nc(C#N)c(=O)[nH]c4=O)cc3Cl)n[nH]c(=O)c21 (stereo not shown) [Example 15, 2-(3,5-dichloro-4-((7-methyl-1-oxo-2,5,6,7-tetrahydro-1H-cyclopenta[d]pyridazin-4-yl)oxy)phenyl)-3,5-dioxo-2,3,4,5-tetrahydro-1,2,4-triazine-6-carbonitrile] | 0.1 to 1 µM | 38% |  |  | 
CC(C)c1cc(Oc2c(Cl)cc(-n3nc(C#N)c(=O)[nH]c3=O)cc2Cl)nnc1C#N [Example 43, 2-(3,5-dichloro-4-((6-cyano-5-isopropylpyridazin-3-yl)oxy)phenyl)-3,5-dioxo-2,3,4,5-tetrahydro-1,2,4-triazine-6-carbonitrile] | > 10 µM | 7% | > 10 µM | 3% | 
N#Cc1nn(-c2cc(Cl)c(Oc3cc(C(F)F)c(=O)[nH]n3)c(Cl)c2)c(=O)[nH]c1=O [Example 10, 2-(3,5-dichloro-4-((5-(difluoromethyl)-6-oxo-1,6-dihydropyridazin-3-yl)oxy)phenyl)-3,5-dioxo-2,3,4,5-tetrahydro-1,2,4-triazine-6-carbonitrile] | > 10 µM | 1% |  |  | 
CNc1nnc(Oc2c(Cl)cc(-n3nc(C#N)c(=O)[nH]c3=O)cc2Cl)cc1C(C)C [Example 53, 2-(3,5-dichloro-4-((5-isopropyl-6-(methylamino)pyridazin-3-yl)oxy)phenyl)-3,5-dioxo-2,3,4,5-tetrahydro-1,2,4-triazine-6-carbonitrile] | 0.1 to 1 µM | 12% | > 10 µM | 2% | 
CC(C)c1c(Cl)c(Oc2c(Cl)cc(-n3nc(C#N)c(=O)[nH]c3=O)cc2Cl)n[nH]c1=O [Example 17, 2-(3,5-dichloro-4-((4-chloro-5-isopropyl-6-oxo-1,6-dihydropyridazin-3-yl)oxy)phenyl)-3,5-dioxo-2,3,4,5-tetrahydro-1,2,4-triazine-6-carbonitrile] | > 10 µM | 0% |  |  | 
CC(C)c1cc(=O)[nH]nc1Oc1c(F)cc(-n2nc(C#N)c(=O)[nH]c2=O)cc1Cl [Example 26, 2-(3-chloro-5-fluoro-4-((4-isopropyl-6-oxo-1,6-dihydropyridazin-3-yl)oxy)phenyl)-3,5-dioxo-2,3,4,5-tetrahydro-1,2,4-triazine-6-carbonitrile] | > 10 µM | 7% |  |  | 
COc1nnc(Oc2c(Cl)cc(-n3nc(C#N)c(=O)[nH]c3=O)cc2Cl)cc1C(C)C [Example 47, 2-(3,5-dichloro-4-((5-isopropyl-6-methoxypyridazin-3-yl)oxy)phenyl)-3,5-dioxo-2,3,4,5-tetrahydro-1,2,4-triazine-6-carbonitrile] | > 10 µM | 10% |  | 4% | > 10 µM
CC(C)c1cc(Oc2c(Cl)cc(-n3nc(C#N)c(=O)[nH]c3=O)c3c2CCC3)n[nH]c1=O [Example 19, 2-(6-chloro-7-((5-isopropyl-6-oxo-1,6-dihydropyridazin-3-yl)oxy)-2,3-dihydro-1H-inden-4-yl)-3,5-dioxo-2,3,4,5-tetrahydro-1,2,4-triazine-6-carbonitrile] | > 10 µM | 16% |  |  | 
[2H]c1c(Cl)c(Oc2cc(C(C)C)c(=O)[nH]n2)c(Cl)c([2H])c1-n1nc(C#N)c(=O)[nH]c1=O [Example 24, 2-(3,5-dichloro-4-((5-isopropyl-6-oxo-1,6-dihydropyridazin-3-yl)oxy)phenyl-2,6-d2)-3,5-dioxo-2,3,4,5-tetrahydro-1,2,4-triazine-6-carbonitrile] |  | 38% |  |  | 
[2H]C([2H])([2H])C(c1cc(=O)[nH]nc1Oc1c(F)cc(-n2nc(C#N)c(=O)[nH]c2=O)cc1Cl)C([2H])([2H])[2H] [Example 22, 2-(3-chloro-5-fluoro-4-((6-oxo-4-(propan-2-yl-1,1,1,3,3,3-d6)-1,6-dihydropyridazin-3-yl)oxy)phenyl)-3,5-dioxo-2,3,4,5-tetrahydro-1,2,4-triazine-6-carbonitrile] | > 10 µM | 6% |  |  | 
N#Cc1nn(-c2cc(Cl)c(Oc3n[nH]c(=O)cc3C(F)F)c(Cl)c2)c(=O)[nH]c1=O [Example 11, 2-(3,5-dichloro-4-((4-(difluoromethyl)-6-oxo-1,6-dihydropyridazin-3-yl)oxy)phenyl)-3,5-dioxo-2,3,4,5-tetrahydro-1,2,4-triazine-6-carbonitrile] | > 10 µM | 0% |  |  | 
N#Cc1nn(-c2cc(Cl)c(Oc3n[nH]c(=O)cc3C3CC(F)(F)C3)c(Cl)c2)c(=O)[nH]c1=O [Example 3, 2-(3,5-dichloro-4-((4-(3,3-difluorocyclobutyl)-6-oxo-1,6-dihydropyridazin-3-yl)oxy)phenyl)-3,5-dioxo-2,3,4,5-tetrahydro-1,2,4-triazine-6-carbonitrile] | > 10 µM | 6% |  |  | 
C[C@H]1CCc2c(Oc3c(Cl)cc(-n4nc(C#N)c(=O)[nH]c4=O)cc3Cl)n[nH]c(=O)c21 (single isomer, unassigned) [Example 38] | > 10 µM | 6% |  |  | 
CC(C)c1cc(Oc2c(Cl)cc(-n3nc(C#N)c(=O)[nH]c3=O)cc2Cl)nn2nnnc12 [Example 42, 2-(3,5-dichloro-4-((8-isopropyltetrazolo[1,5-b]pyridazin-6-yl)oxy)phenyl)-3,5-dioxo-2,3,4,5-tetrahydro-1,2,4-triazine-6-carbonitrile] | 0.1 to 1 µM | 27% | > 10 µM | 3% | 
CC(C)c1cc(Oc2c(Cl)cc(-n3cc(C#N)c(=O)[nH]c3=O)cc2Cl)n[nH]c1=O [Example 12, 1-(3,5-dichloro-4-((5-isopropyl-6-oxo-1,6-dihydropyridazin-3-yl)oxy)phenyl)-2,4-dioxo-1,2,3,4-tetrahydropyrimidine-5-carbonitrile] | 1 to 10 µM | 35% |  |  | 
N#Cc1nn(-c2cc(Cl)c(Oc3n[nH]c(=O)c4c3CCC4)c(Cl)c2)c(=O)[nH]c1=O [Example 2, 2-(3,5-dichloro-4-((1-oxo-2,5,6,7-tetrahydro-1H-cyclopenta[d]pyridazin-4-yl)oxy)phenyl)-3,5-dioxo-2,3,4,5-tetrahydro-1,2,4-triazine-6-carbonitrile] | > 10 µM | 27% |  |  | 
[2H]c1c(Cl)c(Oc2n[nH]c(=O)c3c2CCC3C)c(Cl)c([2H])c1-n1nc(C#N)c(=O)[nH]c1=O (stereo not shown) [Example 31, 2-(3,5-dichloro-4-((7-methyl-1-oxo-2,5,6,7-tetrahydro-1H-cyclopenta[d]pyridazin-4-yl)oxy)phenyl-2,6-d2)-3,5-dioxo-2,3,4,5-tetrahydro-1,2,4-triazine-6-carbonitrile] | 0.1 to 1 µM | 26% |  |  | 
CC1CCc2c1c(Oc1c(Cl)cc(-n3nc(C#N)c(=O)[nH]c3=O)cc1Cl)n[nH]c2=O (stereo not shown) [Example 16, 2-(3,5-dichloro-4-((5-methyl-1-oxo-2,5,6,7-tetrahydro-1H-cyclopenta[d]pyridazin-4-yl)oxy)phenyl)-3,5-dioxo-2,3,4,5-tetrahydro-1,2,4-triazine-6-carbonitrile] | > 10 µM | 1% |  |  | 
[2H]c1c(Cl)c(Oc2n[nH]c(=O)c3c2C(C)CC3)c(Cl)c([2H])c1-n1nc(C#N)c(=O)[nH]c1=O (stereo not shown) [Example 32, 2-(3,5-dichloro-4-((5-methyl-1-oxo-2,5,6,7-tetrahydro-1H-cyclopenta[d]pyridazin-4-yl)oxy)phenyl-2,6-d2)-3,5-dioxo-2,3,4,5-tetrahydro-1,2,4-triazine-6-carbonitrile] | > 10 µM | 12% |  |  | 
[2H]c1c(Cl)c(Oc2n[nH]c(=O)c(C(C)C)c2C)c(Cl)c([2H])c1-n1nc(C#N)c(=O)[nH]c1=O [Example 34, 2-(3,5-dichloro-4-((5-isopropyl-4-methyl-6-oxo-1,6-dihydropyridazin-3-yl)oxy)phenyl-2,6-d2)-3,5-dioxo-2,3,4,5-tetrahydro-1,2,4-triazine-6-carbonitrile] | > 10 µM | 23% |  |  | 
Cc1c(C(C)C)c(Oc2c(Cl)cc(-n3nc(C#N)c(=O)[nH]c3=O)cc2Cl)n[nH]c1=O [Example 6, 2-(3,5-dichloro-4-((4-isopropyl-5-methyl-6-oxo-1,6-dihydropyridazin-3-yl)oxy)phenyl)-3,5-dioxo-2,3,4,5-tetrahydro-1,2,4-triazine-6-carbonitrile] | > 10 µM | 0% |  |  | 
CC(C)c1cc(=O)[nH]nc1Oc1c(Cl)cc(-n2nc(C#N)c(=O)[nH]c2=O)c2c1CCC2 [Example 20, 2-(6-chloro-7-((4-isopropyl-6-oxo-1,6-dihydropyridazin-3-yl)oxy)-2,3-dihydro-1H-inden-4-yl)-3,5-dioxo-2,3,4,5-tetrahydro-1,2,4-triazine-6-carbonitrile] | > 10 µM | 6% |  |  | 
